Where a name gives a salt, the structure may show the parent alone. Active and inactive are the calls of the source.
Legend:
[1] = target: T1, Serine/threonine-protein kinase TAO3 (Homo sapiens, UniProt Q9H2K8)
T1 sequence (Q9H2K8 whole entry): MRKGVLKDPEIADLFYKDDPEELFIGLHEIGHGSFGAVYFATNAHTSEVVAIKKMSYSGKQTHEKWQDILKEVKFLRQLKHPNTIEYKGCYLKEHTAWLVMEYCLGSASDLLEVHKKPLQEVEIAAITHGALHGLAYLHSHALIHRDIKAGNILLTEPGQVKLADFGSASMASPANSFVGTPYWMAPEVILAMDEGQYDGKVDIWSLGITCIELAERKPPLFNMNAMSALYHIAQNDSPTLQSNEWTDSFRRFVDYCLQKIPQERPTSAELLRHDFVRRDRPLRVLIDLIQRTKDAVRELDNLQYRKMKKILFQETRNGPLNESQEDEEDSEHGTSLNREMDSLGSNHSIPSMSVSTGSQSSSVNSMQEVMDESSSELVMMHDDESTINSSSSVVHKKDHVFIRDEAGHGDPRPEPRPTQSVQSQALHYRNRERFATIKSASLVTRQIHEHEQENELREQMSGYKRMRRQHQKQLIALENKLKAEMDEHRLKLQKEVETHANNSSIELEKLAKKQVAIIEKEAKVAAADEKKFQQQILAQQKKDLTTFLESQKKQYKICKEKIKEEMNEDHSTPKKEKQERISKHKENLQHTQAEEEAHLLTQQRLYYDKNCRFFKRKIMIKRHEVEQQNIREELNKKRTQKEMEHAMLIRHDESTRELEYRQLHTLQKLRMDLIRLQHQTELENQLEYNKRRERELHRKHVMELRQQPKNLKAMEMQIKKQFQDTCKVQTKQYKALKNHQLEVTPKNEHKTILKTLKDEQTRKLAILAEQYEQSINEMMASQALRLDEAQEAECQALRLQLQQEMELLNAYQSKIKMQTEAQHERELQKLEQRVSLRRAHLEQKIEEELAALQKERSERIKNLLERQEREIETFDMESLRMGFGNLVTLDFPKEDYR

[2] = target: T2, Phenylalanine--tRNA ligase beta subunit (Homo sapiens, UniProt Q9NSD9)
T2 sequence (Q9NSD9 whole entry): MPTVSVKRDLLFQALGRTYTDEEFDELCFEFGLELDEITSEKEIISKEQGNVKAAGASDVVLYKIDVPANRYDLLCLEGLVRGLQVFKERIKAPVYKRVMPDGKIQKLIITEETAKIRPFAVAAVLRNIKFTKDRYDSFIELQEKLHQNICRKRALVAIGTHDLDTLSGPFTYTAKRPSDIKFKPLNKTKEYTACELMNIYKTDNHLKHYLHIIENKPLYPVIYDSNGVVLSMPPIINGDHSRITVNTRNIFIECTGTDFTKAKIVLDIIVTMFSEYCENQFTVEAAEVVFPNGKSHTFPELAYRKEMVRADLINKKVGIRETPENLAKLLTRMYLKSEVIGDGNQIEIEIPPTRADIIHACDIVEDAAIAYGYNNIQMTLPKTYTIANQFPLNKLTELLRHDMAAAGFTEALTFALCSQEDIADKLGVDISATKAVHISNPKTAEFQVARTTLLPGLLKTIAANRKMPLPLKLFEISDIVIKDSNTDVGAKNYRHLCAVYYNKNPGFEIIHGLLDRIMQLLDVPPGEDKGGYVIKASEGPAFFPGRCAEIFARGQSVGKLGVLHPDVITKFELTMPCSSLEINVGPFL

[3] = target: T3, Beta-adrenergic receptor kinase 1 (Homo sapiens, UniProt P25098)
T3 sequence (P25098 whole entry): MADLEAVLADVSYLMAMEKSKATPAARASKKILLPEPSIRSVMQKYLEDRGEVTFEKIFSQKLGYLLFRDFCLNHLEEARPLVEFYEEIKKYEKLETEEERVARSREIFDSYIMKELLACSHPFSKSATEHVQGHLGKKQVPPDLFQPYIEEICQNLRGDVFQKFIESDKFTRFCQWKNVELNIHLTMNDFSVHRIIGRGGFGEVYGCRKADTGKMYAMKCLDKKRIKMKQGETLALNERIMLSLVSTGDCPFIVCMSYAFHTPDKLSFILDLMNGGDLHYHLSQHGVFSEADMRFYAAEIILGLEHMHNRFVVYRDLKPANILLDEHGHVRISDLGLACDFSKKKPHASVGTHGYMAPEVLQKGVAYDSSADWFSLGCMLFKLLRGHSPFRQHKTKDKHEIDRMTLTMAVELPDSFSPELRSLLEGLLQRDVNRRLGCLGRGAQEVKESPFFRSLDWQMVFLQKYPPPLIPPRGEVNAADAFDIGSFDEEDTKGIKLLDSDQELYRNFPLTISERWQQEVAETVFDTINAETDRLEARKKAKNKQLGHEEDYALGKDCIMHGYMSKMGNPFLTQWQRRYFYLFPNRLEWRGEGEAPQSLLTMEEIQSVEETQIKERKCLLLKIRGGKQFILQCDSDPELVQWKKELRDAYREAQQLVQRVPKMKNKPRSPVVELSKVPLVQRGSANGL
Further: in the data inactive means no Kd found up to 30 µM.

Cn1cc(-c2cnc3ccc4ccc(CS(=O)(=O)NCc5ccccn5)cc4c(=O)c3c2)cn1 [MK-8033] was tested, and the Kd [1] was > 30 µM (inactive), the Kd [2] was > 30 µM (inactive) and the Kd [3] was > 30 µM (inactive).

In the case of Cn1cc(C2=C(c3cn(C4CCN(Cc5ccccn5)CC4)c4ccccc34)C(=O)NC2=O)c2ccccc21 [ENZASTAURIN], the Kd [2] is reported as > 30 µM (inactive) and the Kd [3] is reported as > 30 µM (inactive).

For CN(C[C@@H]1COCCO1)S(=O)(=O)Nc1ccc2ccc3ncc(-c4cnn(C)c4)cc3c(=O)c2c1 [MK-2461], the Kd [1] was > 30 µM (inactive), the Kd [2] was > 30 µM (inactive) and the Kd [3] was > 30 µM (inactive).

With CN1C/C=C/CCOc2cccc(c2)-c2ccnc(n2)Nc2cccc(c2)C1 [ZOTIRACICLIB] the Kd [1] was 2.86 µM (active), the Kd [2] was > 30 µM (inactive) and the Kd [3] was > 30 µM (inactive).

For CC(=O)c1cnc2ccc(-c3cc(Cl)c(O)c(Cl)c3)nc2c1N[C@H]1CC[C@H](CN(C)C)CC1, the Kd [1] was 0.021 µM (active), the Kd [2] was > 30 µM (inactive) and the Kd [3] was > 30 µM (inactive).

With Cc1cc(Nc2ncc(Cl)c(Nc3ccccc3S(=O)(=O)C(C)C)n2)c(OC(C)C)cc1C1CCNCC1 [CERITINIB] the Kd [1] was > 30 µM (inactive), the Kd [2] was > 30 µM (inactive) and the Kd [3] was > 30 µM (inactive).

For CC(C)(C)c1nc(-c2cccc(NS(=O)(=O)c3c(F)cccc3F)c2F)c(-c2ccnc(N)n2)s1 [DABRAFENIB], the Kd [1] was > 30 µM (inactive), the Kd [2] was > 30 µM (inactive) and the Kd [3] was > 30 µM (inactive).

In the case of Cc1nc2cc(-n3ncc(C(=O)c4cc5ccccc5[nH]4)c3N)ccc2[nH]1 [FGFR INHIBITOR DEBIO 1347], the Kd [1] is reported as > 30 µM (inactive), the Kd [2] is reported as > 30 µM (inactive) and the Kd [3] is reported as > 30 µM (inactive).

For CCn1cc(-c2ccnc3[nH]c(-c4cccc(CN(C)C)c4)cc23)c(-c2ccc(NC(=O)N(C)C)cc2)n1 [GSK-1070916], the Kd [1] was > 30 µM (inactive) and the Kd [2] was > 30 µM (inactive).

With C[C@@H](N)c1ccc(C(=O)Nc2ccnc3[nH]ccc23)cc1 [Y-39983] the Kd [1] was > 30 µM (inactive), the Kd [2] was > 30 µM (inactive) and the Kd [3] was > 30 µM (inactive).

In the case of N#CC1(c2ccc(NC(=O)c3cccnc3NCc3ccncc3)cc2)CCCC1 [RIVOCERANIB], the Kd [1] is reported as > 30 µM (inactive), the Kd [2] is reported as > 30 µM (inactive) and the Kd [3] is reported as > 30 µM (inactive).

CCNC(=O)C#Cc1ccc2c(c1)NC(=O)/C2=C(\Nc1ccc(CN(C)C)cc1)c1ccccc1 was tested, and the Kd [1] was > 30 µM (inactive), the Kd [2] was > 30 µM (inactive) and the Kd [3] was > 30 µM (inactive).

For CC(C)c1cc(CNc2nc(Nc3cc(C4CC4)[nH]n3)cc(N3CCN(C)CC3)n2)on1 [XL-228], the Kd [1] was > 30 µM (inactive), the Kd [2] was > 30 µM (inactive) and the Kd [3] was > 30 µM (inactive).

For CO[C@H]1C[C@@H]2CC[C@@H](C)[C@@](O)(O2)C(=O)C(=O)N2CCCC[C@H]2C(=O)O[C@H]([C@H](C)C[C@@H]2CC[C@@H](O)[C@H](OC)C2)CC(=O)[C@H](C)/C=C(\C)[C@@H](O)[C@@H](OC)C(=O)[C@H](C)C[C@H](C)/C=C/C=C/C=C/1C [SIROLIMUS], the Kd [1] was > 30 µM (inactive), the Kd [2] was > 30 µM (inactive) and the Kd [3] was > 30 µM (inactive).

With COc1cc(Nc2ncc3c(n2)-c2ccc(Cl)cc2C(c2c(F)cccc2OC)=NC3)ccc1C(=O)O [ALISERTIB] the Kd [1] was > 30 µM (inactive), the Kd [2] was > 30 µM (inactive) and the Kd [3] was > 30 µM (inactive).

For O=C(Nc1cc(C(F)(F)F)cc(C(F)(F)F)c1)c1cc(Cl)ccc1O [IMD-0354], the Kd [1] was > 30 µM (inactive), the Kd [2] was > 30 µM (inactive) and the Kd [3] was > 30 µM (inactive).

With Cc1cc(Nc2ncnc3ccc(NC4=NC(C)(C)CO4)cc23)ccc1Oc1ccn2ncnc2c1 [TUCATINIB] the Kd [1] was > 30 µM (inactive), the Kd [2] was > 30 µM (inactive) and the Kd [3] was > 30 µM (inactive).

For CCS(=O)(=O)c1cccc(-c2cc(C(=O)NC3CCN(C)CC3)c(C)c3[nH]c4ncc(C)cc4c23)c1 [TAK-901], the Kd [1] was > 30 µM (inactive), the Kd [2] was > 30 µM (inactive) and the Kd [3] was > 30 µM (inactive).

For O=C(Cc1ccc(-c2ccc(OCCN3CCOCC3)cc2)cn1)NCc1ccccc1 [TIRBANIBULIN], the Kd [1] was > 30 µM (inactive), the Kd [2] was > 30 µM (inactive) and the Kd [3] was > 30 µM (inactive).

In the case of COc1cc2ncnc(Oc3cccc(NC(=O)Nc4cc(C(C)(C)C(F)(F)F)on4)c3)c2cc1OC [CEP-32496], the Kd [1] is reported as > 30 µM (inactive), the Kd [2] is reported as > 30 µM (inactive) and the Kd [3] is reported as > 30 µM (inactive).

N#CC[C@H](C1CCCC1)n1cc(-c2ncnc3[nH]ccc23)cn1 [RUXOLITINIB] was tested, and the Kd [2] was > 30 µM (inactive) and the Kd [3] was > 30 µM (inactive).

In the case of CCS(=O)(=O)N1CCN(c2ccc(Nc3ncc(C(N)=O)c(NC4CC4)n3)cc2)CC1 [Cerdulatinib Hydrochloride], the Kd [1] is reported as 8.26 µM (active), the Kd [2] is reported as > 30 µM (inactive) and the Kd [3] is reported as > 30 µM (inactive).

With Cc1cc(C(=O)NOCCO)c(Nc2ccc(I)cc2F)n(C)c1=O [AZD-8330] the Kd [1] was > 30 µM (inactive), the Kd [2] was > 30 µM (inactive) and the Kd [3] was > 30 µM (inactive).

With C#Cc1cccc(Nc2ncnc3cc(OC)c(OCCCCCCC(=O)NO)cc23)c1 [CUDC-101] the Kd [1] was > 30 µM (inactive), the Kd [2] was > 30 µM (inactive) and the Kd [3] was > 30 µM (inactive).

NC1(c2ccc(-c3nc4ccn5c(=O)[nH]nc5c4cc3-c3ccccc3)cc2)CCC1 [MK-2206] was tested, and the Kd [1] was > 30 µM (inactive), the Kd [2] was > 30 µM (inactive) and the Kd [3] was > 30 µM (inactive).

In the case of Cc1nc2cc(-c3nn(C(C)C)c4ncnc(N)c34)ccc2o1, the Kd [1] is reported as > 30 µM (inactive), the Kd [2] is reported as > 30 µM (inactive) and the Kd [3] is reported as > 30 µM (inactive).

For O=C1NC(=O)[C@@H](c2cn3c4c(cccc24)CCC3)[C@@H]1c1c[nH]c2ccccc12 [TIVANTINIB], the Kd [1] was > 30 µM (inactive), the Kd [2] was > 30 µM (inactive) and the Kd [3] was > 30 µM (inactive).

With CO[C@H]1C[C@@H]2CC[C@@H](C)[C@@](O)(O2)C(=O)C(=O)N2CCCC[C@H]2C(=O)O[C@H]([C@H](C)C[C@@H]2CC[C@@H](OP(C)(C)=O)[C@H](OC)C2)CC(=O)[C@H](C)/C=C(\C)[C@@H](O)[C@@H](OC)C(=O)[C@H](C)C[C@H](C)/C=C/C=C/C=C/1C [RIDAFOROLIMUS] the Kd [1] was > 30 µM (inactive), the Kd [2] was > 30 µM (inactive) and the Kd [3] was > 30 µM (inactive).

In the case of COCC(=O)NC/C=C/c1ccc2ncnc(Nc3ccc(Oc4ccc(C)nc4)c(C)c3)c2c1 [CP-724714], the Kd [1] is reported as > 30 µM (inactive), the Kd [2] is reported as > 30 µM (inactive) and the Kd [3] is reported as > 30 µM (inactive).

For Cc1nc(NC(=O)N2CCC[C@H]2C(N)=O)sc1-c1ccnc(C(C)(C)C(F)(F)F)c1 [ALPELISIB], the Kd [1] was > 30 µM (inactive), the Kd [2] was > 30 µM (inactive) and the Kd [3] was > 30 µM (inactive).

For CNC(=O)c1ccccc1Sc1ccc2c(/C=C/c3ccccn3)n[nH]c2c1 [AXITINIB], the Kd [2] was > 30 µM (inactive) and the Kd [3] was > 30 µM (inactive).

C[C@@H](Oc1cc(-n2cnc3ccc(CN4CCN(C)CC4)cc32)sc1C(N)=O)c1ccccc1C(F)(F)F [GSK-461364] was tested, and the Kd [2] was > 30 µM (inactive) and the Kd [3] was > 30 µM (inactive).

With O=C(NOCCO)c1cc(CN2OCCCC2=O)c(F)c(F)c1Nc1ccc(I)cc1F [RO-4987655] the Kd [2] was > 30 µM (inactive).

For NC(=O)c1c(OCc2c(F)cc(Br)cc2F)nsc1NC(=O)NCCCCN1CCCC1 [OSI-632], the Kd [2] was > 30 µM (inactive) and the Kd [3] was > 30 µM (inactive).

From ChEMBL document CHEMBL3991601, “The target landscape of clinical kinase drugs” (Science, 2017)
